From ChEMBL document CHEMBL3745645, “Synthesis, in vitro antitumor activity, dihydrofolate reductase inhibition, DNA intercalation and structure-activity relationship studies of 1,3,5-triazine analogues” (Bioorg Med Chem Lett, 2016)
Activity calls are given as the source filed them. The calls are words filed in the database; no cut-off is given here.

Assays:
Assay type in all cases: functional
[1] = Cytotoxicity against human HCT116 cells at 10 uM after 48 hrs by SRB assay; conditions: HCT-116, 48 h, read-out: GI
MDA-MB-468 = assay: Cytotoxicity against human MDA-MB-468 cells at 10 uM after 48 hrs by SRB assay; conditions: MDA-MB-468, 48 h, read-out: GI
[2] = Cytotoxicity against human IGROV1 cells at 10 uM after 48 hrs by SRB assay; conditions: IGROV-1, 48 h, read-out: GI
[3] = Cytotoxicity against human LOXIMVI cells at 10 uM after 48 hrs by SRB assay; conditions: LOX IMVI, read-out: GI
SW-620 = assay: Cytotoxicity against human SW620 cells at 10 uM after 48 hrs by SRB assay
[4] = Cytotoxicity against human HOP92 cells at 10 uM after 48 hrs by SRB assay; conditions: HOP-92, 48 h, read-out: GI
OVCAR-5 = assay: Cytotoxicity against human OVCAR5 cells at 10 uM after 48 hrs by SRB assay
[5] = Cytotoxicity against human SF539 cells at 10 uM after 48 hrs by SRB assay; conditions: SF-539, 48 h, read-out: GI
BT-549 = assay: Cytotoxicity against human BT549 cells at 10 uM after 48 hrs by SRB assay
[6] = Cytotoxicity against human OVCAR3 cells at 10 uM after 48 hrs by SRB assay; conditions: OVCAR-3, 48 h, read-out: GI
SNB-75 = assay: Cytotoxicity against human SNB75 cells at 10 uM after 48 hrs by SRB assay
[7] = Cytotoxicity against human NCI-ADR-RES cells at 10 uM after 48 hrs by SRB assay; conditions: read-out: GI
786-0 = assay: Cytotoxicity against human 786-0 cells at 10 uM after 48 hrs by SRB assay; conditions: 786-0, 48 h, read-out: GI
T47D = assay: Cytotoxicity against human T47D cells at 10 uM after 48 hrs by SRB assay; conditions: read-out: GI
A549 = assay: Cytotoxicity against human A549 cells at 10 uM after 48 hrs by SRB assay; conditions: A549, 48 h, read-out: GI
HL-60(TB) = assay: Cytotoxicity against human HL-60(TB) cells at 10 uM after 48 hrs by SRB assay
SNB-19 = assay: Cytotoxicity against human SNB19 cells at 10 uM after 48 hrs by SRB assay
[8] = Cytotoxicity against human UO31 cells at 10 uM after 48 hrs by SRB assay; conditions: UO-31, 48 h, read-out: GI
[9] = Cytotoxicity against human SF268 cells at 10 uM after 48 hrs by SRB assay; conditions: SF-268, 48 h, read-out: GI
Hs-578T = assay: Cytotoxicity against human Hs 578T cells at 10 uM after 48 hrs by SRB assay
M14 = assay: Cytotoxicity against human M14 cells at 10 uM after 48 hrs by SRB assay; conditions: M14, 48 h, read-out: GI
[10] = Cytotoxicity against human HOP62 cells at 10 uM after 48 hrs by SRB assay; conditions: HOP-62, 48 h, read-out: GI
Malme-3M = assay: Cytotoxicity against human MALME-3M cells at 10 uM after 48 hrs by SRB assay
[11] = Cytotoxicity against human COLO205 cells at 10 uM after 48 hrs by SRB assay; conditions: COLO 205, 48 h, read-out: GI
MDA-MB-231 = assay: Cytotoxicity against human MDA-MB-231 cells at 10 uM after 48 hrs by SRB assay; conditions: MDA-MB-231, 48 h, read-out: GI
[12] = Cytotoxicity against human OVCAR4 cells at 10 uM after 48 hrs by SRB assay; conditions: OVCAR-4, 48 h, read-out: GI
SK-OV-3 = assay: Cytotoxicity against human SKOV3 cells at 10 uM after 48 hrs by SRB assay
A498 = assay: Cytotoxicity against human A498 cells at 10 uM after 48 hrs by SRB assay; conditions: A498, 48 h, read-out: GI
[13] = Cytotoxicity against human RPMI8226 cells at 10 uM after 48 hrs by SRB assay; conditions: RPMI-8226, 48 h, read-out: GI
K562 = assay: Cytotoxicity against human K562 cells at 10 uM after 48 hrs by SRB assay; conditions: K562, 48 h, read-out: GI
SK-MEL-28 = assay: Cytotoxicity against human SK-MEL-28 cells at 10 uM after 48 hrs by SRB assay
[14] = Cytotoxicity against human OVCAR8 cells at 10 uM after 48 hrs by SRB assay; conditions: OVCAR-8, 48 h, read-out: GI
KM12 = assay: Cytotoxicity against human KM12 cells at 10 uM after 48 hrs by SRB assay; conditions: KM12, 48 h, read-out: GI
[15] = Cytotoxicity against human RXF393 cells at 10 uM after 48 hrs by SRB assay; conditions: RXF 393, 48 h, read-out: GI
SN12C = assay: Cytotoxicity against human SN12C cells at 10 uM after 48 hrs by SRB assay; conditions: read-out: GI
MCF7 = assay: Cytotoxicity against human MCF7 cells at 10 uM after 48 hrs by SRB assay; conditions: MCF7, 48 h, read-out: GI
[16] = Cytotoxicity against human UACC257 cells at 10 uM after 48 hrs by SRB assay; conditions: UACC-257, 48 h, read-out: GI
HT-29 = assay: Cytotoxicity against human HT-29 cells at 10 uM after 48 hrs by SRB assay; conditions: HT-29, 48 h, read-out: GI
CAKI-1 = assay: Cytotoxicity against human Caki1 cells at 10 uM after 48 hrs by SRB assay
SR = assay: Cytotoxicity against human SR cells at 10 uM after 48 hrs by SRB assay; conditions: read-out: GI
NCI-H322M = assay: Cytotoxicity against human NCI-H322M cells at 10 uM after 48 hrs by SRB assay; conditions: read-out: GI
NCI-H522 = assay: Cytotoxicity against human NCI-H522 cells at 10 uM after 48 hrs by SRB assay; conditions: NCI-H522, 48 h, read-out: GI
TK-10 = assay: Cytotoxicity against human TK10 cells at 10 uM after 48 hrs by SRB assay
NCI-H226 = assay: Cytotoxicity against human NCI-H226 cells at 10 uM after 48 hrs by SRB assay; conditions: NCI-H226, 48 h, read-out: GI
HCC 2998 = assay: Cytotoxicity against human HCC2998 cells at 10 uM after 48 hrs by SRB assay
[17] = Cytotoxicity against human DU145 cells at 10 uM after 48 hrs by SRB assay; conditions: DU-145, 48 h, read-out: GI
CCRF-CEM = assay: Cytotoxicity against human CCRF-CEM cells at 10 uM after 48 hrs by SRB assay; conditions: read-out: GI
NCI-H460 = assay: Cytotoxicity against human NCI-H460 cells at 10 uM after 48 hrs by SRB assay; conditions: NCI-H460, 48 h, read-out: GI
ACHN = assay: Cytotoxicity against human ACHN cells at 10 uM after 48 hrs by SRB assay; conditions: read-out: GI
U-251 = assay: Cytotoxicity against human U251 cells at 10 uM after 48 hrs by SRB assay; conditions: U-251, 48 h, read-out: GI
SK-MEL-2 = assay: Cytotoxicity against human SK-MEL-2 cells at 10 uM after 48 hrs by SRB assay
MDA-MB-435 = assay: Cytotoxicity against human MDA-MB-435 cells at 10 uM after 48 hrs by SRB assay; conditions: MDA-MB-435, 48 h, read-out: GI
SK-MEL-5 = assay: Cytotoxicity against human SK-MEL-5 cells at 10 uM after 48 hrs by SRB assay; conditions: SK-MEL-5, 48 h, read-out: GI
[18] = Cytotoxicity against human SF295 cells at 10 uM after 48 hrs by SRB assay; conditions: SF-295, 48 h, read-out: GI
HCT-15 = assay: Cytotoxicity against human HCT15 cells at 10 uM after 48 hrs by SRB assay

With `Cc1nc2cc(Nc3nc(NCCO)nc(Nc4ccc(F)cc4)n3)ccc2n1Cc1ccccc1` the inhibition of growth at 10 µM [1] was 23.4%, the inhibition of growth at 10 µM (MDA-MB-468) was 0.84% and the inhibition of growth at 10 µM [2] was 11.1%. For the same compound, the inhibition of growth at 10 µM [3] was 18.1%, the “growth inhibition (GI)” value (SW-620) was “inactive” and the inhibition of growth at 10 µM [4] was 50.1%. For the same compound, the “growth inhibition (GI)” value (OVCAR-5) was “inactive”, the inhibition of growth at 10 µM [5] was 5.61% and the “growth inhibition (GI)” value (BT-549) was “inactive”. The inhibition of growth at 10 µM [6] was 9.84%, the “growth inhibition (GI)” value (SNB-75) was “inactive” and the inhibition of growth at 10 µM [7] was 2.28%. For the same compound, the inhibition of growth at 10 µM (786-0) was 5.33%, the inhibition of growth at 10 µM (T47D) was 34.7% and the inhibition of growth at 10 µM (A549) was 25.9%. For the same compound, the “growth inhibition (GI)” value (HL-60(TB)) was “Active”, the “growth inhibition (GI)” value (SNB-19) was “inactive” and the inhibition of growth at 10 µM [8] was 21.2%. For the same compound, the inhibition of growth at 10 µM [9] was 7.77%, the “growth inhibition (GI)” value (Hs-578T) was “inactive” and the inhibition of growth at 10 µM (M14) was 6.95%. The inhibition of growth at 10 µM [10] was 6.05%, the “growth inhibition (GI)” value (Malme-3M) was “inactive” and the inhibition of growth at 10 µM [11] was 5.46%. For the same compound, the inhibition of growth at 10 µM (MDA-MB-231) was 19.7%, the inhibition of growth at 10 µM [12] was 4.73% and the “growth inhibition (GI)” value (SK-OV-3) was “inactive”. The inhibition of growth at 10 µM (A498) was 33.8%, the inhibition of growth at 10 µM [13] was 85.8% and the inhibition of growth at 10 µM (K562) was 80.8%. For the same compound, the “growth inhibition (GI)” value (SK-MEL-28) was “inactive”, the inhibition of growth at 10 µM [14] was 20% and the inhibition of growth at 10 µM (KM12) was 19.7%. For the same compound, the inhibition of growth at 10 µM [15] was 9.82%, the inhibition of growth at 10 µM (SN12C) was 8.89% and the inhibition of growth at 10 µM (MCF7) was 8.72%. The inhibition of growth at 10 µM [16] was 1.2%, the inhibition of growth at 10 µM (HT-29) was 28.1% and the “growth inhibition (GI)” value (CAKI-1) was “inactive”. It also gave an inhibition of growth at 10 µM (SR) of 85.1%, an inhibition of growth at 10 µM (NCI-H322M) of 1.09% and an inhibition of growth at 10 µM (NCI-H522) of 14.3%. The “growth inhibition (GI)” value (TK-10) was “inactive”, the inhibition of growth at 10 µM (NCI-H226) was 8.37% and the “growth inhibition (GI)” value (HCC 2998) was “inactive”. For the same compound, the inhibition of growth at 10 µM [17] was 11.5%, the inhibition of growth at 10 µM (CCRF-CEM) was 98.1% and the inhibition of growth at 10 µM (NCI-H460) was 16.5%. For the same compound, the inhibition of growth at 10 µM (ACHN) was 1.72%, the inhibition of growth at 10 µM (U-251) was 13.7% and the “growth inhibition (GI)” value (SK-MEL-2) was “inactive”. The inhibition of growth at 10 µM (MDA-MB-435) was 8.37%, the inhibition of growth at 10 µM (SK-MEL-5) was 19.7% and the inhibition of growth at 10 µM [18] was 13.6%. For the same compound, the “growth inhibition (GI)” value (HCT-15) was “inactive”.
